Where “and” joins values, the source holds several entries; their conditions need not be identical. Equal values may be shown once.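 Dose response: 5 concentrations. Exposure: 48 h. Format: 96-well plates. Endpoint: linear interpolation; highest concentration if not reached. GI50 is the concentration that inhibits growth by half. TGI is the concentration that stops growth completely.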
Legend:
Assay in all cases: NCI-60 cell line screen, 48 h
[1] = test system: KM12 colon
[2] = test system: UO-31 renal
[3] = test system: LOX IMVI melanoma
[4] = test system: HOP-62 NSCLC
[5] = test system: ACHN renal
[6] = test system: SK-MEL-5 melanoma
[7] = test system: MALME-3M melanoma
[8] = test system: OVCAR-3 ovarian
[9] = test system: OVCAR-8 ovarian
[10] = test system: M14 melanoma

With `NC(=S)N=Nc1c(O)[nH]c2ccccc12` the GI50 [1] was 217 µM, the TGI [1] was > 1000 µM and the GI50 [2] was 39 µM and 126 µM. For the same compound, the TGI [2] was 504 µM, the GI50 [3] was 226 µM and the TGI [3] was > 1000 µM. For the same compound, the GI50 [4] was 167 µM, the TGI [4] was 360 µM and the GI50 [5] was 141 µM. For the same compound, the TGI [5] was 394 µM, the GI50 [6] was 55.5 µM and 201 µM and the TGI [6] was 651 µM. For the same compound, the GI50 [7] was 310 µM, the TGI [7] was 753 µM and the GI50 [8] was 139 µM. The TGI [8] was 322 µM, the GI50 [9] was 234 µM and the TGI [9] was 846 µM.

`COc1ccc2c(c1)C(=O)c1c-2n(CCCNCCO)c(=O)c2cc([N+](=O)[O-])ccc12` was tested, and the GI50 [1] was 0.0255 µM, the TGI [1] was 0.739 µM and the GI50 [3] was < 0.01 µM. The TGI [3] was 0.0905 µM, the GI50 [4] was < 0.01 µM and the TGI [4] was 0.145 µM. The GI50 [5] was < 0.01 µM, the TGI [5] was < 0.034 µM and the GI50 [10] was < 0.01 µM. For the same compound, the TGI [10] was 0.117 µM, the GI50 [6] was < 0.01 µM and the TGI [6] was < 0.0251 µM. For the same compound, the GI50 [8] was 0.0171 µM, the TGI [8] was 0.586 µM and the GI50 [9] was < 0.01 µM. The TGI [9] was 1.34 µM.

In the case of `O=C(CN1CCN(c2ccccn2)CC1)Nc1ccc(Cl)cc1C(=O)c1ccccc1Cl`, the GI50 [1] is reported as 7.73 µM, the TGI [1] is reported as > 100 µM and the GI50 [2] is reported as 9.38 µM. For the same compound, the TGI [2] was > 100 µM, the GI50 [3] was 41.6 µM and the TGI [3] was > 100 µM. The GI50 [5] was 56.1 µM, the TGI [5] was > 100 µM and the GI50 [10] was 50.9 µM. The TGI [10] was > 100 µM, the GI50 [6] was 10.2 µM and the TGI [6] was 38.3 µM. For the same compound, the GI50 [7] was > 100 µM, the TGI [7] was > 100 µM and the GI50 [9] was > 100 µM. The TGI [9] was > 100 µM.

With `Cc1ccc(NC(=O)CC2C(=O)Nc3ccccc3S2(=O)=O)cc1C` (configuration not stated) the TGI [2] was > 100 µM, the TGI [3] was > 100 µM and the TGI [5] was > 100 µM. The TGI [10] was > 100 µM, the TGI [6] was > 100 µM and the TGI [7] was > 100 µM. For the same compound, the TGI [8] was > 100 µM and the TGI [9] was > 100 µM.

With `Cc1c(C(=O)Nc2ccc(Cl)cc2)nc(N)nc1-c1cccc(Cl)c1` the TGI [1] was > 100 µM, the TGI [2] was > 100 µM and the TGI [4] was > 100 µM. The TGI [5] was > 100 µM, the TGI [10] was > 100 µM and the TGI [6] was > 100 µM. The TGI [7] was > 100 µM, the TGI [8] was > 100 µM and the TGI [9] was > 100 µM.

With `CC1CC2(C)CC(=O)C1C1C(=O)N(CCN3CCOCC3)C(=O)C12` (configuration not stated) the GI50 [1] was > 100 µM, the TGI [1] was > 100 µM and the GI50 [2] was > 100 µM. For the same compound, the TGI [2] was > 100 µM, the GI50 [3] was > 100 µM and the TGI [3] was > 100 µM. The GI50 [4] was > 100 µM, the TGI [4] was > 100 µM and the GI50 [5] was > 100 µM. The TGI [5] was > 100 µM, the GI50 [10] was > 100 µM and the TGI [10] was > 100 µM. The GI50 [6] was > 100 µM, the TGI [6] was > 100 µM and the GI50 [7] was > 100 µM. For the same compound, the TGI [7] was > 100 µM, the GI50 [9] was > 100 µM and the TGI [9] was > 100 µM.

In the case of `COc1ccc(S(=O)(=O)N/N=C/CN2C(=O)c3ccccc3C2=O)cc1`, the TGI [1] is reported as > 100 µM, the TGI [3] is reported as > 100 µM and the TGI [4] is reported as > 100 µM. The TGI [5] was > 100 µM, the TGI [10] was > 100 µM and the TGI [6] was > 100 µM. The TGI [7] was > 100 µM and the TGI [9] was > 100 µM.

`Nc1nc(N)c(-c2ccc(Cl)cc2)c(/C=C/c2ccc([N+](=O)[O-])cc2)n1` was tested, and the GI50 [1] was 23.4 µM, the TGI [1] was > 100 µM and the GI50 [2] was 21.4 µM. For the same compound, the TGI [2] was > 100 µM, the GI50 [3] was 4.52 µM and the TGI [3] was > 100 µM. It also gave a GI50 [4] of 11.9 µM, a TGI [4] of 31.1 µM and a GI50 [5] of 3.85 µM. The TGI [5] was > 100 µM, the GI50 [10] was 7.15 µM and the TGI [10] was > 100 µM. For the same compound, the GI50 [6] was 3.83 µM, the TGI [6] was > 100 µM and the GI50 [8] was 5.76 µM. The TGI [8] was 31.1 µM, the GI50 [9] was 4.77 µM and the TGI [9] was > 100 µM.

In the case of `COc1ccc(OC)c(/C=C/C(=O)c2ccc3cc(OC)ccc3c2)c1`, the GI50 [1] is reported as 3.02 µM, the TGI [1] is reported as 11.2 µM and the TGI [2] is reported as > 15.2 µM. The GI50 [3] was 48 µM, the TGI [3] was > 50 µM and the GI50 [4] was 9.71 µM. The TGI [4] was > 50 µM, the TGI [5] was > 32.9 µM and the GI50 [10] was > 23.4 µM. The TGI [10] was > 50 µM, the GI50 [6] was 6.4 µM and the TGI [6] was > 24.3 µM. For the same compound, the GI50 [8] was 1.64 µM, the TGI [8] was 11.9 µM and the TGI [9] was > 11.9 µM.

With `COc1ccc2c(c1)O/C(=C\c1ccc([N+](=O)[O-])s1)C2=O` the GI50 [4] was 8.11 µM, the TGI [4] was > 31.6 µM and the GI50 [5] was 1.41 µM. The TGI [5] was > 100 µM, the GI50 [10] was 2.89 µM and the TGI [10] was > 100 µM. For the same compound, the GI50 [7] was 4.99 µM, the TGI [7] was > 100 µM and the GI50 [9] was 2.19 µM. The TGI [9] was > 100 µM.

Work on `COn1cc(C(=O)N=C(SC)SC)c2ccccc21` yielded a GI50 [1] of 20.3 µM, a TGI [1] of 52.7 µM and a GI50 [2] of 40.9 µM. The TGI [2] was > 100 µM, the GI50 [3] was 17.6 µM and the TGI [3] was 50.6 µM. For the same compound, the GI50 [4] was 17.6 µM, the TGI [4] was 51.4 µM and the GI50 [5] was 22 µM. For the same compound, the TGI [5] was 47.7 µM, the GI50 [10] was 18.4 µM and the TGI [10] was 48.1 µM. It also gave a GI50 [6] of 15.7 µM, a TGI [6] of 34.4 µM and a GI50 [8] of 17.8 µM. It also gave a TGI [8] of 51.5 µM, a GI50 [9] of 18.5 µM and a TGI [9] of 55.5 µM.

With `O=C(Nc1ccc(N2CCNCC2)cn1)c1[nH]ncc1Nc1ncnc2sc3c(c12)CCC3` the GI50 [1] was 2.38 µM, the TGI [1] was 6.12 µM and the GI50 [2] was 1.58 µM. It also gave a TGI [2] of 3.71 µM, a GI50 [4] of 1.83 µM and a TGI [4] of 4.81 µM. For the same compound, the GI50 [10] was 1.49 µM, the TGI [10] was 3.22 µM and the GI50 [8] was 1.84 µM. The TGI [8] was 3.62 µM, the GI50 [9] was 2.17 µM and the TGI [9] was 5 µM.

`O=C(OCc1ccccc1)c1ccccc1-c1c2ccc(=O)cc-2oc2cc(OCc3ccccc3)ccc12` gave a TGI [1] of 31.3 µM, a TGI [2] of 55.3 µM and a TGI [3] of 21.2 µM. The TGI [5] was > 100 µM, the TGI [10] was 44.7 µM and the TGI [6] was 17.8 µM. The TGI [7] was 31.4 µM, the TGI [8] was 59.1 µM and the TGI [9] was 74 µM.

`O=[N+]([O-])c1ccc2nc(=S)[nH]n2c1` was tested, and the TGI [1] was > 100 µM, the TGI [2] was > 100 µM and the TGI [3] was > 100 µM. For the same compound, the TGI [4] was > 100 µM, the TGI [5] was > 100 µM and the TGI [10] was > 100 µM. The TGI [6] was > 100 µM, the TGI [7] was > 100 µM and the TGI [9] was > 100 µM.

For `CCC12C=CCN3CCC4(C(=C(C(=O)OC)C1)Nc1ccccc14)[C@H]32` (some centres not stated), the TGI [1] was > 100 µM, the TGI [2] was > 100 µM and the TGI [3] was 53.4 µM. The TGI [5] was > 100 µM, the TGI [10] was 50.8 µM and the TGI [6] was > 100 µM. The TGI [7] was > 100 µM and the TGI [8] was > 100 µM.

With `NNC(=O)N/N=C1/C(=O)N(c2ccc(Cl)c(Cl)c2)C(=O)C(=O)C1c1nc2ccccc2o1` (configuration not stated) the TGI [2] was > 100 µM, the TGI [3] was > 100 µM and the TGI [4] was > 100 µM. For the same compound, the TGI [5] was > 100 µM, the TGI [10] was > 100 µM and the TGI [6] was > 100 µM. The TGI [7] was > 100 µM, the TGI [8] was > 100 µM and the TGI [9] was > 100 µM.

With `CCN1C(=O)N(CC)C2C1NN=c1s/c(=C\c3cnc(C)n3C)c(=O)n12` (configuration not stated) the GI50 [1] was 1.22 µM, the TGI [1] was > 100 µM and the GI50 [2] was 5 µM. For the same compound, the TGI [2] was > 100 µM, the GI50 [3] was 4.43 µM and the TGI [3] was > 100 µM. The GI50 [4] was 2.59 µM, the TGI [4] was > 100 µM and the GI50 [5] was 5.94 µM. For the same compound, the TGI [5] was > 100 µM, the GI50 [6] was 1.2 µM and the TGI [6] was 11.1 µM. The GI50 [7] was 2.96 µM, the TGI [7] was > 100 µM and the GI50 [8] was 0.593 µM. For the same compound, the TGI [8] was 3.41 µM, the GI50 [9] was 3.41 µM and the TGI [9] was > 100 µM.

With `C#Cc1ccccc1N1C(=O)C=CC1=O` the TGI [2] was > 100 µM, the TGI [4] was > 100 µM and the TGI [5] was > 100 µM. The TGI [10] was > 100 µM, the TGI [6] was > 100 µM and the TGI [7] was > 100 µM. For the same compound, the TGI [8] was > 100 µM and the TGI [9] was > 100 µM.

Reference: PubChem BioAssay (NCI)
